According to patent US20250145600A1, “2-((4-((S)-2-(4-CHLORO-2-FLUOROPHENYL)-2-METHYLBENZO[D][1,3]DIOXOL-4-YL)PIPERIDIN-1-YL)METHYL)-1-(((S)-OXETAN-2-YL)METHYL)-1H-IMIDAZOLE DERIVATIVES AS ACTIVATORS OF THE GLP1 RECEPTOR FOR THE TREATMENT OF OBESITY” (Novartis AG, priority 2022, published 2025):

Target: human GLP1R (hGLP1R) (Homo sapiens, UniProt P43220)
Assay: Human GLP1R β-arrestin recruitment assay (PathHunter)
Format: cell-based
Set-up: insert synthesized by GeneArt 93-0164 (CHO-K1-EA parental cells); 93-0491 (pCMV PK vector bundle)
Details: CHO-hGLP1R-β-arrestin cells; for EC50: 2 h at 37° C., top concentration 30 μM, read-out: Beta-Arrestin assay EC50 Mean; for Emax: relative to GLP1(7-36), read-out: Beta-Arrestin assay Emax (%)
Method: Compounds of formula (I) according to the invention were tested in the following cellular assays that measure the intracellular cAMP concentration, beta-arrestin recruitment and receptor internalization. The cAMP is generated by the activation of GLP1R. The extent to which the GLP1R is internalized into the cell and away from the plasma membrane following activation is also shown in Table 2. EC50 for each assay is defined as the concentration of the compound that leads to half of the maximum response (after baseline correction). Emax is defined as the maximum response observed for the test compound, normalized to the maximum response observed for the endogenous ligand (GLP1(7-36)) to GLP1R.
Human GLP1R β-Arrestin Recruitment Assay
The extent to which agonists recruited β-arrestin was measured using the PathHunter® β-arrestin assay (DiscoverX). This assay measures binding of β-arrestin to the receptor using an enzyme complementation approach. […] When β-arrestin is recruited to the receptor the enzyme becomes active and generates luminescence in the presence of a chemiluminescent substrate (PathHunter® Detection Kit, DiscoverX cat #93-0001). Luminescence can be measured on a relevant detector. CHO-hGLP1R-β-arrestin cells stably overexpressing hGLP1R with Prolink tag and β-arrestin with EA tag were seeded at 20 μL per well in white 384-well poly-D-Lysine coated plates (Greiner Bio One, cat #781945) in Plating Reagent 2 (DiscoverX, cat #93-0563R^2A), and incubated overnight at 37° C., 5% CO2 with humidity. The following day, agonists were prepared at 5 times the final required concentration. To generate triplicate dose response curves, compounds were serially diluted 3-fold in assay buffer (HBSS, 10 mM Hepes and 0.1% BSA), then added to the cell assay plate to a final volume of 25 μL and final top concentrations starting at 30 μM. In the same plate and assay buffer as the tested compounds, were EC100 control wells containing GLP1 (7-36) peptide (Bachem, cat #H-6795) at a final concentration of 1 μM and also EC0 control wells containing no compound. The plate was incubated at 37° C., 5% CO2 with humidity for 2 h after adding the compounds to the cells. Then the detection reagent was prepared (19 parts cell assay buffer, 5 parts substrate reagent 1 and 1 part substrate reagent 2 as per manufacturers recommendations, DiscoverX cat #93-0001), and 12 μL were added per well to the cell assay plate. The plate was incubated for an additional hour in the dark at RT. Luminescence was then measured with an Envision 2104 Multilabel reader with “TRF Light Unit, 337 nm” (Perkin Elmer) using the Ultra-Sensitive protocol setting “384-well US luminescence detector” with the 384-well luminescence aperture, 0.1 sec per well. β-arrestin recruitment was calculated and expressed as percent of the GLP1 (7-36) EC100 control wells: [(sample signal−mean EC0 signal)/(mean EC100 of GLP1 (7-36) signal−mean EC0 signal)]*100 using Microsoft Excel. Curve fitting for EC50 determinations was performed using GraphPad Prism. The 4-parameter logistic model, Hill slope was used: Y=Bottom+(Top−Bottom)/(1+10^((Log EC50−X)*Hill Slope)), where Y is the functional response; X is the compound concentration; bottom is A0 or the minimum value (at 0 dose); top is Ainf or the maximum value (at infinite dose); EC50 is the point of inflection (i.e. the point on the sigmoid shaped curve halfway between A0 and Ainf). The EC50 value was calculated in μM. Emax is the maximal activity detected within the concentration range, derived from the fitted curve relative to GLP1(7-36).
PathHunter CHO-K1-EA parental cells (DiscoverX, cat #93-0164) were plated at a density of 2×10^6 cells per T75 cm^2 flask in 22 mL of complete medium (AssayComplete Cell Culture kit 107, DiscoverX, cat #92-3107G). The following day, the medium was replaced with 22 mL of fresh medium with no antibiotics and cells were transfected as follows. […]

Sequence of human GLP1R (hGLP1R) (P43220 24-463): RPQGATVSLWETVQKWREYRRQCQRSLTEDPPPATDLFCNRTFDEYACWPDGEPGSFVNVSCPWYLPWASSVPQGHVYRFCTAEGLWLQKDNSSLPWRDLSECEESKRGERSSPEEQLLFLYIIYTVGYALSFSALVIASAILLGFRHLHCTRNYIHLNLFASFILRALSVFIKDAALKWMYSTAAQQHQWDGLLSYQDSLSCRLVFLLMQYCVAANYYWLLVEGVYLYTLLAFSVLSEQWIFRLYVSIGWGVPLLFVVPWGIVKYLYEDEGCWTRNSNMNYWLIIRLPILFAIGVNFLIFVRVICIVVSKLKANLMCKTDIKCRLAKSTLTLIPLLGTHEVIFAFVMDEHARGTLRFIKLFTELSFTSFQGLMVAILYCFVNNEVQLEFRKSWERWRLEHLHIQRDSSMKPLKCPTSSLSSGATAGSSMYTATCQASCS

Row | SMILES | EC50 [µM] | Emax [%]
1 | Cc1c(-c2nc(C(F)(F)F)c(C(=O)O)o2)nc(CN2CCC(c3cccc4c3O[C@@](C)(c3ccc(Cl)cc3F)O4)CC2)n1C[C@@H]1CCO1 [Compound C-14, 2-(2-((4-((S)-2-(4-chloro-2-fluorophenyl)-2-methylbenzo[d][1,3]dioxol-4-yl)piperidin-1-yl)methyl)-5-methyl-1-(((S)-oxetan-2-yl)methyl)-1H-imidazol-4-yl)-4-(trifluoromethyl)oxazole-5-carboxylic acid] | > 30 | 0
2 | Cc1c(-c2cnc(C(=O)O)o2)nc(CN2CCC(c3cccc4c3O[C@@](C)(c3ccc(Cl)cc3F)O4)CC2)n1C[C@@H]1CCO1 [Compound C-16, 5-(2-((4-((S)-2-(4-chloro-2-fluorophenyl)-2-methylbenzo[d][1,3]dioxol-4-yl)piperidin-1-yl)methyl)-5-methyl-1-(((S)-oxetan-2-yl)methyl)-1H-imidazol-4-yl)oxazole-2-carboxylic acid] | > 30 | 11
3 | Cc1c(-c2cc(C(=O)O)n(C)n2)nc(CN2CCC(c3cccc4c3O[C@@](C)(c3ccc(Cl)cc3F)O4)CC2)n1C[C@@H]1CCO1 [Compound C-17, 3-(2-((4-((S)-2-(4-chloro-2-fluorophenyl)-2-methylbenzo[d][1,3]dioxol-4-yl)piperidin-1-yl)methyl)-5-methyl-1-(((S)-oxetan-2-yl)methyl)-1H-imidazol-4-yl)-1-methyl-1H-pyrazole-5-carboxylic acid] | > 30 | 2
4 | Cc1c(-c2coc(C(=O)O)n2)nc(CN2CCC(c3cccc4c3O[C@@](C)(c3ccc(Cl)cc3F)O4)CC2)n1C[C@@H]1CCO1 [Compound C-18, 4-(2-((4-((S)-2-(4-chloro-2-fluorophenyl)-2-methylbenzo[d][1,3]dioxol-4-yl)piperidin-1-yl)methyl)-5-methyl-1-(((S)-oxetan-2-yl)methyl)-1H-imidazol-4-yl)oxazole-2-carboxylic acid] | > 30 | 16
5 | Cc1cc(-c2nc(CN3CCC(c4cccc5c4O[C@@](C)(c4ccc(Cl)cc4F)O5)CC3)n(C[C@@H]3CCO3)c2C)oc1C(=O)O [Compound C-19, 5-(2-((4-((S)-2-(4-chloro-2-fluorophenyl)-2-methylbenzo[d][1,3]dioxol-4-yl)piperidin-1-yl)methyl)-5-methyl-1-(((S)-oxetan-2-yl)methyl)-1H-imidazol-4-yl)-3-methylfuran-2-carboxylic acid] | > 30 | 7
6 | Cc1nc(CN2CCC(c3cccc4c3O[C@@](C)(c3ccc(Cl)cc3F)O4)CC2)n(C[C@@H]2CCO2)c1-c1coc(C(=O)O)n1 [Compound C-20, 4-(2-((4-((S)-2-(4-chloro-2-fluorophenyl)-2-methylbenzo[d][1,3]dioxol-4-yl)piperidin-1-yl)methyl)-4-methyl-1-(((S)-oxetan-2-yl)methyl)-1H-imidazol-5-yl)oxazole-2-carboxylic acid] | > 30 | 0
7 | Cc1nc(CN2CCC(c3cccc4c3O[C@@](C)(c3ccc(Cl)cc3F)O4)CC2)n(C[C@@H]2CCO2)c1-c1cc(C(=O)O)n(C)n1 [Compound C-21, 3-(2-((4-((S)-2-(4-chloro-2-fluorophenyl)-2-methylbenzo[d][1,3]dioxol-4-yl)piperidin-1-yl)methyl)-4-methyl-1-(((S)-oxetan-2-yl)methyl)-1H-imidazol-5-yl)-1-methyl-1H-pyrazole-5-carboxylic acid] | > 30 | 0
8 | Cc1c(-c2ccc(C(=O)O)o2)nc(CN2CCC(c3cccc4c3O[C@@](C)(c3ccc(Cl)cc3F)O4)CC2)n1C[C@@H]1CCO1 [Compound C-24, 5-(2-((4-((S)-2-(4-chloro-2-fluorophenyl)-2-methylbenzo[d][1,3]dioxol-4-yl)piperidin-1-yl)methyl)-5-methyl-1-(((S)-oxetan-2-yl)methyl)-1H-imidazol-4-yl)furan-2-carboxylic acid] | > 30 | 1
